Molecular target: enzyme carbonic anhydrase II (Homo sapiens, UniProt P00918)
Details: substance as DNA conjugate within the DEL; primer pairs 1a/1b (whole library), 2a/2b (CBS), 3a/3b (Theo); small ΔCq reflects large enrichment

enrichment after selection (from ΔCq, difference in qPCR cycle before and after selection): not enriched
Compound: Cn1cnc2c1c(=O)[nH]c(=O)n2C [Theo, theobromine]
